Experimental data taken from patent US10604502B2, “Substituted 5-cyanoindole compounds and uses thereof” (Novartis AG, priority 2017, dated 2020).

What follows are molecules tested on CD86 mRNA expression in MV4-11 cells (assay: CD86 mRNA expression assay (qPCR assay) in MV4-11 cells). Conditions: Homo sapiens, 24 hours treatment, CD86 mRNA normalized against ACTB, read-out: CD86 induction qPCR in MV4-11 AC50.
Format: cell-based
Procedure: MV4-11 cells were treated with representative compound of the present invention and RNA was extracted, followed by reverse transcription and Real-Time PCR. […] The data were used for dose response curve fitting in GraphPad Prism to calculate the AC50 of each compound. AC50 of CD86 mRNA expression activation after treatment of representative compounds of present invention will reflect the inhibition of LSD1 activity.

Going from `Cc1cc2c(cc1C#N)c(-c1cncc(N)c1Cl)cn2-c1ccc(S(C)(=O)=O)cc1` [Example 77, 3-(5-amino-4-chloropyridin-3-yl)-6-methyl-1-(4-(methylsulfonyl)phenyl)-1H-indole-5-carbonitrile] to `Cc1cc2c(cc1C#N)c(-c1cncc(N)c1Cl)cn2-c1ccc(=O)n(C)c1` [Example 84, 3-(5-amino-4-chloropyridin-3-yl)-6-methyl-1-(1-methyl-6-oxo-1,6-dihydropyridin-3-yl)-1H-indole-5-carbonitrile], the AC50 rises from 7 nM to 1490 nM (210-fold).

Going from `Cc1cc2c(cc1C#N)c(-c1cncc(N)c1Cl)cn2[C@H]1CC[C@H](O)CC1` [Example 1, 3-(5-amino-4-chloropyridin-3-yl)-1-((1R,4R)-4-hydroxycyclohexyl)-6-methyl-1H-indole-5-carbonitrile] to `Cc1cc2c(cc1C#N)c(-c1cncc(N)c1F)cn2[C@H]1CC[C@H](O)CC1` [Example 5, 3-(5-amino-4-fluoropyridin-3-yl)-1-((1R,4R)-4-hydroxycyclohexyl)-6-methyl-1H-indole-5-carbonitrile], the AC50 rises from 98 nM to 3620 nM (37-fold).

Going from `Cc1cc2c(cc1C#N)c(-c1cncc(N)c1Cl)cn2C1CCC(C(N)=O)C1` (stereo not shown) [Example 68, 3(3-(5-amino-4-chloropyridin-3-yl)-5-cyano-6-methyl-1H-indol-1-yl)cyclopentane-1-carboxamide] to `Cc1cc2c(cc1C#N)c(-c1cncc(N)c1Cl)cn2[C@H]1CC[C@H](S(C)(=O)=O)CC1` [Example 47, 3-(5-amino-4-chloropyridin-3-yl)-6-methyl-1-((1R,4R)-4-(methylsulfonyl)cyclohexyl)-1H-indole-5-carbonitrile], the AC50 falls from 464 nM to 202 nM (2.3-fold).

With `N#Cc1cc2c(-c3cncc(N)c3Cl)cn([C@H]3CC[C@H](O)CC3)c2cc1Cl` [Example 7, 3-(5-amino-4-chloropyridin-3-yl)-6-chloro-1-((1R,4R)-4-hydroxycyclohexyl)-1H-indole-5-carbonitrile] the AC50 was 569 nM.
